Source: PubChem BioAssay (NCI)
Values joined by “and” are separate entries in the source; they are usually repeats but may differ in a detail not shown here. Identical values can stand only once.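 Where inhibition never reached the appropriate level, the endpoint shown equals the highest concentration tested. Otherwise, values were interpolated linearly from a five-concentration, 48-hour dose response in 96-well plates. Abbreviation: GI50, concentration required for 50% inhibition of growth. At the TGI there is no net growth.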

What was measured:
Assay in all cases: NCI anticancer screen, dose series, 48 h
NCI-H522 lung = tested on: NCI-H522 lung
M14 melanoma = tested on: M14 melanoma
SF-295 CNS = tested on: SF-295 CNS
COLO 205 colon = tested on: COLO 205 colon
SNB-75 CNS = tested on: SNB-75 CNS
SN12C renal = tested on: SN12C renal
SK-MEL-2 melanoma = tested on: SK-MEL-2 melanoma
SW-620 colon = tested on: SW-620 colon
NCI-H460 lung = tested on: NCI-H460 lung
EKVX NSCLC = tested on: EKVX NSCLC

SMILES	GI50 (NCI-H522 lung) [µM]	TGI (NCI-H522 lung) [µM]	GI50 (M14 melanoma)	TGI (M14 melanoma)	GI50 (SF-295 CNS)	TGI (SF-295 CNS)	GI50 (COLO 205 colon)	TGI (COLO 205 colon)	GI50 (SNB-75 CNS)	TGI (SNB-75 CNS)	GI50 (SN12C renal)	TGI (SN12C renal)	GI50 (SK-MEL-2 melanoma) [µM]	TGI (SK-MEL-2 melanoma)	GI50 (SW-620 colon)	TGI (SW-620 colon)	GI50 (NCI-H460 lung) [µM]	TGI (NCI-H460 lung) [µM]	GI50 (EKVX NSCLC)	TGI (EKVX NSCLC)
CC(C)(C)CC(C)(C)N(CSc1ccc(Cl)cc1)CSc1ccc(Cl)cc1	1.65	3.08	1.92 µM	5.91 µM	0.316 µM	1.33 µM	2.15 µM	4.19 µM	1.13 µM	5.68 µM	0.506 µM	3.45 µM	2.54	6.28 µM	2.02 µM	4.93 µM	0.829	8.38		
COc1cc(-c2nc(-c3nnc(-c4ccc(F)c(Cl)c4)o3)c3ccccn23)cc(OC)c1OC	1.92	4.66	3.27 µM	> 100 µM	3.09 µM	> 100 µM	4.68 µM	> 100 µM	1.3 µM	3.46 µM	2.42 µM	> 100 µM	2.27	5.59 µM	3.05 µM	> 100 µM			4.19 µM	> 100 µM
COc1cc[c]([Sb]([Br])([CH]=C(C)C)([CH]=C(C)C)[CH]=C(C)C)cc1	2.48	9.23	6.29 µM	42.5 µM	18.4 µM	87.2 µM	1.95 µM	7.99 µM			10.9 µM	> 100 µM	5.79	51.3 µM	6.46 µM	> 100 µM	6.61	54.5	2.28 µM	39.6 µM
O=C1OCC2=C1C(c1cccc(C(F)(F)F)c1)c1cc3c(cc1N2CCO)OCO3 (configuration not stated)	0.573	2.16			0.801 µM	> 50 µM	1.18 µM	3.26 µM			2.9 µM	> 50 µM	1.43	> 50 µM	0.84 µM	> 50 µM	1.54	> 50	1.75 µM	> 50 µM
O=C(O)c1c([N+](=O)[O-])cc(C(F)(F)F)cc1[N+](=O)[O-]		> 100		> 100 µM		> 100 µM		> 100 µM				> 100 µM		> 100 µM		> 100 µM		> 100		> 100 µM
O=S(=O)(CC#CCCCOCC#Cc1ccccc1C#CCS(=O)(=O)c1ccccc1)c1ccccc1	14.6	33	25.2 µM	56.5 µM	29.8 µM	91.3 µM	72.3 µM	> 100 µM			18.3 µM	40.7 µM	23	47.9 µM	28.6 µM	> 100 µM	31.2	> 100	> 100 µM	> 100 µM
COc1ccc(C2=CC(c3ccc(Oc4ccnc5cc(Cl)ccc45)c(OC)c3)c3c(nc(OC)[nH]c3=O)N2)cc1 (configuration not stated)	3.18	47.2	88.4 µM	> 100 µM	6.42 µM	> 100 µM	79.9 µM	> 100 µM	9.44 µM	> 100 µM	7.03 µM	> 100 µM	31.6	> 100 µM	4.34 µM	> 100 µM	6.51	> 100		
COc1cc(-c2cc(-c3nc4cc(Cl)c(Cl)cc4[nH]3)[nH]n2)cc(OC)c1OC	2.02	5.66	3.57 µM	13.3 µM	3.04 µM	11.5 µM	3.77 µM	12.7 µM	3.12 µM	14.2 µM	3.05 µM	13.4 µM			4.47 µM	19.1 µM	3.33	12.9		
O=[N+]([O-])c1cccc(/C=C/c2ccccn2)c1			52.1 µM	> 100 µM	35.6 µM	> 100 µM	24.3 µM	95.5 µM	5.47 µM	75.4 µM	38.8 µM	> 100 µM			5.95 µM	> 100 µM	34.5	> 100	43.8 µM	> 100 µM
C/C(=C1/N=C(c2ccccc2)OC1=O)c1ccc(C)cc1		> 100		> 100 µM		> 100 µM		> 100 µM				> 100 µM		> 100 µM		> 100 µM		> 100		> 100 µM
Cc1cc(S(N)(=O)=O)c(S/C(=N\Nc2ccc([N+](=O)[O-])cc2)c2ccc(O)cc2)cc1Cl	6.07	43.5	2.61 µM	7.15 µM	2.07 µM	3.92 µM	4.21 µM	17.6 µM			2.38 µM	5.29 µM	3.9	53.3 µM	3.54 µM	11.6 µM	2.94	10.1	6.82 µM	22.6 µM
C=CC[N+]1(CCO)CCN=C1CCCCCCCCCCCCC (configuration not stated)			1.64 µM	2.99 µM	1.81 µM	3.3 µM	1.7 µM	3.08 µM	1.56 µM	2.9 µM	1.46 µM	2.85 µM	2.04	3.69 µM	1.63 µM	2.98 µM	1.7	3.06	1.62 µM	2.97 µM
O=C(Nc1ccc(Cl)cc1F)c1cc(F)ccc1O	0.379	9.26	1.11 µM	5.44 µM	1.8 µM	3.57 µM			0.39 µM	6.16 µM	0.643 µM	5.64 µM	0.519	3.12 µM	1.46 µM	23.6 µM	0.647	13.5	1.88 µM	9.97 µM
COc1cc(OC)cc(-c2ccc(-c3ccc(C(=N)N)s3)s2)c1	1.77	3.55	1.1 µM	2.74 µM	1.65 µM	3.22 µM	0.209 µM	0.407 µM	1.22 µM	2.5 µM	1.74 µM	4.32 µM	1.62	3.14 µM	0.291 µM	1.02 µM	0.482	1.79		
CN(C)c1ccc(/C=C/c2ccnc3ccc4ccccc4c23)cc1		> 100		> 100 µM				> 100 µM		70.4 µM		> 100 µM		> 100 µM		> 100 µM		> 100		
COc1ccc2nc3ccccc3c(NCCCCCN(CCCl)CCCl)c2c1		0.017		0.184 µM		1.21 µM		0.429 µM		0.911 µM						1.19 µM		0.192		4.1 µM
COc1nc2c(cc1S(=O)(=O)c1ccccc1)CCc1c-2cnn1Cc1ccccc1			> 100 µM	> 100 µM	9.47 µM	> 100 µM	7.32 µM	> 100 µM	20 µM	> 100 µM	> 100 µM	> 100 µM	30.4	> 100 µM	> 100 µM	> 100 µM	7.06	> 100	14 µM	> 100 µM

SMILES	GI50 (NCI-H522 lung) [µM]	TGI (NCI-H522 lung) [µM]	GI50 (M14 melanoma)	TGI (M14 melanoma)	GI50 (SF-295 CNS)	TGI (SF-295 CNS)	GI50 (COLO 205 colon)	TGI (COLO 205 colon)	GI50 (SNB-75 CNS)	TGI (SNB-75 CNS)	GI50 (SN12C renal)	TGI (SN12C renal)	GI50 (SK-MEL-2 melanoma) [µM]	TGI (SK-MEL-2 melanoma)	GI50 (SW-620 colon)	TGI (SW-620 colon)	GI50 (NCI-H460 lung) [µM]	TGI (NCI-H460 lung) [µM]	GI50 (EKVX NSCLC)	TGI (EKVX NSCLC)
COC1=C(C)C(=O)C2=C(C1=O)C(CO)N1C(C#N)C3CC4C(C1C2N1CCOC41)N3C (configuration not stated)					0.142 µM	0.845 µM and 0.678 µM and 1.11 µM	0.000734 µM and 0.00604 µM and < 0.0134 µM	0.0203 µM and 0.0151 µM and 0.0205 µM	0.0669 µM	0.141 µM and 0.226 µM and 0.338 µM				0.0451 µM and 0.038 µM and 0.0364 µM	0.000811 µM	1.41 µM and 1.16 µM and 10.6 µM			0.00438 µM and < 0.0144 µM	
Cc1cc(C(=O)N[C@@H](CCC(=O)O)C(=O)O)sc1CC[C@@H]1CNc2nc(N)[nH]c(=O)c2C1	0.0322	> 100	< 0.0124 µM	> 100 µM	0.0496 µM	> 100 µM	0.0309 µM	> 100 µM	0.252 µM	> 100 µM	0.0253 µM	> 100 µM	7.78	> 100 µM	0.0101 µM	> 100 µM	< 0.0119	> 100		
CN(C)CCNC(=O)c1cccc2cc([N+](=O)[O-])ccc12		2.88	1.6 µM and 0.441 µM	3.32 µM and 1.2 µM	0.989 µM and 0.414 µM	3.77 µM and 2.66 µM	0.893 µM and 0.217 µM		1.37 µM and 0.38 µM	5.77 µM and 1.08 µM	1.69 µM and 0.178 µM	7.57 µM and 2.24 µM			0.519 µM and 0.18 µM	17.7 µM and 5.64 µM	0.39	2.05		6.33 µM and 2.28 µM
CSc1c(S(C)=O)[nH]c2cc(Br)cc(Br)c12 (configuration not stated)		55.5		61.5 µM		45.2 µM		33.1 µM		50.9 µM		33.9 µM				> 100 µM		35.1		59.7 µM
Fc1c[c-]c(-c2ccccn2)c(F)c1.[CH3-].[Pt+2].c1ccc([PH+](c2ccccc2)c2ccccn2)cc1	1.94	8.18			4.91 µM	62.5 µM	1.77 µM	5.72 µM	1.03 µM	9.9 µM	1.51 µM	4.24 µM	2.22	5.86 µM	1.92 µM	4.55 µM	1.63	4.91	1.96 µM	5.52 µM
O=C(CCc1ccco1)NC1CCN(CC2(c3ccc(Cl)cc3)CCC2)CC1	14.6	30			15.5 µM	30.1 µM	15.3 µM	31.8 µM	10 µM	21.7 µM	15.4 µM	33.1 µM	16.9	31.7 µM	15.5 µM	30.5 µM	15.1	28.4		
CN(C)C(=S)/N=c1\ssc(=S)n1-c1ccccc1		27.8		28.6 µM		46.6 µM				34.1 µM		28.8 µM		21.6 µM		22.6 µM		33.1		43.6 µM
COc1ccccc1-c1ccc2nc(NC(=O)Nc3cc(C(F)(F)F)cc(C(F)(F)F)c3)sc2c1	1.76	9.35	1.54 µM	3.22 µM	2.64 µM	9.33 µM	1.65 µM	3.92 µM	2.25 µM	11.8 µM	1.7 µM	3.36 µM	2.09	6.09 µM	3.04 µM	11.2 µM	2.26	6.12		
NCCn1ccc(NC(c2ccccc2)(c2ccccc2)c2ccccc2)nc1=O		32.8				36.1 µM		78.6 µM		33.9 µM		42.3 µM		33.4 µM		35.9 µM		37.9		59.9 µM
CCCCCCCCCCCCC/C=C1\C[C@H](O)COC1=O		33.5		28.3 µM		33 µM				30.7 µM		28.8 µM		31.1 µM		28.8 µM		33.4		32 µM
Clc1ccccc1C1N2CCCCC2[C@@H]2c3[nH]c4ccccc4c3CCN12 (some centres not stated)				31.3 µM		58.9 µM		37.4 µM		66.7 µM		30.9 µM		34.1 µM		31 µM		35.6		> 100 µM
COc1ccc(OC)c(/C=C/C(=O)C(C)(C)C)c1		30.4		30.2 µM		67.4 µM		33.3 µM		56.8 µM		45.4 µM				38.6 µM		> 100		43.9 µM
CC1(C(=O)NCCN(CCNC(=O)C2(C)CC3(C)CC(C)(C2)C(=O)NC3=O)CCNC(=O)C2(C)CC3(C)CC(C)(C2)C(=O)NC3=O)CC2(C)CC(C)(C1)C(=O)NC2=O (configuration not stated)				> 100 µM		> 100 µM		> 100 µM		> 100 µM		> 100 µM		> 100 µM		> 100 µM		> 100		> 100 µM
CCOC(=O)/C(=C/c1ccccc1)C(=O)c1ccccc1	2.14	4.5	3.77 µM	15.5 µM	4.19 µM	15.2 µM	2.43 µM	5.04 µM	2.95 µM	14.5 µM	3.21 µM	12 µM			2.77 µM	7.6 µM	3.27	10.9		
Cc1ccc(/C=N/NS(=O)(=O)c2ccccc2)cc1				> 100 µM		> 100 µM		> 100 µM		> 100 µM		> 100 µM		> 100 µM		> 100 µM		> 100		> 100 µM
O=C(c1ccccn1)c1nc(-c2ccc(Cl)c(Cl)c2)nc2ccc(Cl)cc12				> 100 µM		> 100 µM				35 µM				> 100 µM		> 100 µM		> 100		> 100 µM
